Data from patent publication US12390437B2, “Itaconic acid derivatives and uses thereof intreating an inflammatory disease or a disease associated with an undesirable immune response” (Sitryx Therapeutics Limited, priority 2019, dated 2025).

System: IL-1β cytokine output from THP-1s
Experiment: THP-1 AlphaLISA IL-1β cytokine assay
Assay type: cell-based, human
Details: Homo sapiens, THP-1, PMA-differentiated THP-1 cells, LPS 24 hr then Nigericin 1 hour; read-out: IL-1β (IC50)
Procedure, shortened: (§1)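 PMA-differentiated (72 h) THP-1 cells pretreated 30 min with compound, LPS-stimulated 24 h, then nigericin 1 h at 37 °C. Supernatant IL-1β and IL-6 by AlphaLISA; % inhibition normalised to ±LPS controls, IC50 from concentration-response curves.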

In order of falling IC50:
1. C=C(CC(=O)O[C@H](C)CCCCCC)C(=O)OCCC(=O)O [Example 88, (R)-3-((2-methylene-4-(octan-2-yloxy)-4-oxobutanoyl)oxy)propanoic acid]  25.2 µM
2. C=C(CC(=O)O[C@@H](C)CCCCCC)C(=O)OCC(=O)O [Example 89, (S)-2-((2-methylene-4-(octan-2-yloxy)-4-oxobutanoyl)oxy)acetic acid]  17.5 µM

System: IL-6 cytokine output from THP-1s
Experiment: THP-1 AlphaLISA IL-6 cytokine assay
Assay type: cell-based, human
Details: Homo sapiens; PMA-differentiated THP-1 cells, LPS 24 hr then Nigericin 1 hour
Procedure, shortened: as §1

In order of falling IC50:
1. C=C(CC(=O)O[C@H](C)CCCCCC)C(=O)OCCC(=O)O [Example 88, (R)-3-((2-methylene-4-(octan-2-yloxy)-4-oxobutanoyl)oxy)propanoic acid]  20.4 µM
2. C=C(CC(=O)O[C@@H](C)CCCCCC)C(=O)OCC(=O)O [Example 89, (S)-2-((2-methylene-4-(octan-2-yloxy)-4-oxobutanoyl)oxy)acetic acid]  12.6 µM

System: not listed separately
Experiment: Mouse pharmacokinetic study, intravenous dosing
Assay type: in vivo
Details: male, C57BL/6, mouse, iv; plasma, 10 mg/kg i.v., time 0.05 h; read-out: Parent compound concentration following intravenous administration
Procedure, shortened: (§2)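 Plasma drug levels were quantified by LC-MS/MS from K2EDTA facial-vein semi-serial bleeds (N=3 per time point) in male C57BL/6 mice aged 6-8 weeks. Gavage dosing used 100 mg/kg (5% DMSO/HPMC-Tween vehicle, 5 min–24 h); tail-vein dosing used 10 mg/kg (10% DMSO/HP-β-CD vehicle, 3 min–8 h).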

In order of falling concentration at 0.05 h:
1. C=C(CC(=O)O[C@H](C)CCCCCC)C(=O)OCCC(=O)O [Example 88, (R)-3-((2-methylene-4-(octan-2-yloxy)-4-oxobutanoyl)oxy)propanoic acid]  42500 ng/mL
2. C=C(CC(=O)O[C@@H](C)CCCCCC)C(=O)OCC(=O)O [Example 89, (S)-2-((2-methylene-4-(octan-2-yloxy)-4-oxobutanoyl)oxy)acetic acid]  27800 ng/mL

Same assay, conditions: male, C57BL/6, mouse, iv; plasma, 10 mg/kg i.v., time 0.133 h; read-out: Parent compound concentration following intravenous administration

In order of falling concentration at 0.133 h:
1. C=C(CC(=O)O[C@H](C)CCCCCC)C(=O)OCCC(=O)O [Example 88, (R)-3-((2-methylene-4-(octan-2-yloxy)-4-oxobutanoyl)oxy)propanoic acid]  23500 ng/mL
2. C=C(CC(=O)O[C@@H](C)CCCCCC)C(=O)OCC(=O)O [Example 89, (S)-2-((2-methylene-4-(octan-2-yloxy)-4-oxobutanoyl)oxy)acetic acid]  12400 ng/mL

Same assay, conditions: male, C57BL/6, mouse, iv; plasma, 10 mg/kg i.v., time 0.25 h; read-out: Parent compound concentration following intravenous administration

In order of rising concentration at 0.25 h:
1. C=C(CC(=O)O[C@@H](C)CCCCCC)C(=O)OCC(=O)O [Example 89, (S)-2-((2-methylene-4-(octan-2-yloxy)-4-oxobutanoyl)oxy)acetic acid]  7680 ng/mL
2. C=C(CC(=O)O[C@H](C)CCCCCC)C(=O)OCCC(=O)O [Example 88, (R)-3-((2-methylene-4-(octan-2-yloxy)-4-oxobutanoyl)oxy)propanoic acid]  12400 ng/mL

Same assay, conditions: male, C57BL/6, mouse, iv; plasma, 10 mg/kg i.v., time 0.5 h; read-out: Parent compound concentration following intravenous administration

In order of rising concentration at 0.5 h:
1. C=C(CC(=O)O[C@@H](C)CCCCCC)C(=O)OCC(=O)O [Example 89, (S)-2-((2-methylene-4-(octan-2-yloxy)-4-oxobutanoyl)oxy)acetic acid]  2300 ng/mL
2. C=C(CC(=O)O[C@H](C)CCCCCC)C(=O)OCCC(=O)O [Example 88, (R)-3-((2-methylene-4-(octan-2-yloxy)-4-oxobutanoyl)oxy)propanoic acid]  6250 ng/mL

Same assay, conditions: male, C57BL/6, mouse, iv; plasma, 10 mg/kg i.v., time 1 h; read-out: Parent compound concentration following intravenous administration

In order of rising concentration at 1 h:
1. C=C(CC(=O)O[C@@H](C)CCCCCC)C(=O)OCC(=O)O [Example 89, (S)-2-((2-methylene-4-(octan-2-yloxy)-4-oxobutanoyl)oxy)acetic acid]  430 ng/mL
2. C=C(CC(=O)O[C@H](C)CCCCCC)C(=O)OCCC(=O)O [Example 88, (R)-3-((2-methylene-4-(octan-2-yloxy)-4-oxobutanoyl)oxy)propanoic acid]  2510 ng/mL

Same assay, conditions: male, C57BL/6, mouse, iv; plasma, 10 mg/kg i.v., time 2 h; read-out: Parent compound concentration following intravenous administration

In order of falling concentration at 2 h:
1. C=C(CC(=O)O[C@H](C)CCCCCC)C(=O)OCCC(=O)O [Example 88, (R)-3-((2-methylene-4-(octan-2-yloxy)-4-oxobutanoyl)oxy)propanoic acid]  200 ng/mL
2. C=C(CC(=O)O[C@@H](C)CCCCCC)C(=O)OCC(=O)O [Example 89, (S)-2-((2-methylene-4-(octan-2-yloxy)-4-oxobutanoyl)oxy)acetic acid]  65 ng/mL

Same assay, conditions: male, C57BL/6, mouse, iv; plasma, 10 mg/kg i.v., time 4 h; read-out: Parent compound concentration following intravenous administration

In order of falling concentration at 4 h:
1. C=C(CC(=O)O[C@H](C)CCCCCC)C(=O)OCCC(=O)O [Example 88, (R)-3-((2-methylene-4-(octan-2-yloxy)-4-oxobutanoyl)oxy)propanoic acid]  40 ng/mL
2. C=C(CC(=O)O[C@@H](C)CCCCCC)C(=O)OCC(=O)O [Example 89, (S)-2-((2-methylene-4-(octan-2-yloxy)-4-oxobutanoyl)oxy)acetic acid]  6.8 ng/mL

Same assay, conditions: male, C57BL/6, mouse, iv; plasma, 10 mg/kg i.v., time 6 h; read-out: Parent compound concentration following intravenous administration

Going from `C=C(CC(=O)O[C@H](C)CCCCCC)C(=O)OCCC(=O)O` [Example 88, (R)-3-((2-methylene-4-(octan-2-yloxy)-4-oxobutanoyl)oxy)propanoic acid] to `C=C(CC(=O)O[C@@H](C)CCCCCC)C(=O)OCC(=O)O` [Example 89, (S)-2-((2-methylene-4-(octan-2-yloxy)-4-oxobutanoyl)oxy)acetic acid], the concentration at 6 h falls from 11 ng/mL to less than 4 ng/mL.

Same assay, conditions: male, C57BL/6, mouse, iv; plasma, 10 mg/kg i.v., time 8 h; read-out: Parent compound concentration following intravenous administration

First: C=C(CC(=O)O[C@H](C)CCCCCC)C(=O)OCCC(=O)O [Example 88, (R)-3-((2-methylene-4-(octan-2-yloxy)-4-oxobutanoyl)oxy)propanoic acid]
Second: C=C(CC(=O)O[C@@H](C)CCCCCC)C(=O)OCC(=O)O [Example 89, (S)-2-((2-methylene-4-(octan-2-yloxy)-4-oxobutanoyl)oxy)acetic acid]
The concentration at 8 h of the first is higher: 4.2 ng/mL for the first, less than 4 ng/mL for the second.

System: not listed separately
Experiment: Mouse pharmacokinetic study, oral administration
Assay type: in vivo
Details: male, C57BL/6, mouse, plasma, po, 100 mg/kg, plasma, male C57BL/6 mice, oral gavage 100 mg/kg, 0.083 h; read-out: Parent compound concentrations following oral administration, Time 0.083 h
Procedure, shortened: as §2

In order of falling concentration at 0.083 h:
1. C=C(CC(=O)O[C@H](C)CCCCCC)C(=O)OCCC(=O)O [Example 88, (R)-3-((2-methylene-4-(octan-2-yloxy)-4-oxobutanoyl)oxy)propanoic acid]  53900 ng/mL
2. C=C(CC(=O)O[C@@H](C)CCCCCC)C(=O)OCC(=O)O [Example 89, (S)-2-((2-methylene-4-(octan-2-yloxy)-4-oxobutanoyl)oxy)acetic acid]  44000 ng/mL

Same assay, conditions: male, C57BL/6, mouse, plasma, po, 100 mg/kg, plasma, male C57BL/6 mice, oral gavage 100 mg/kg, 0.25 h; read-out: Parent compound concentrations following oral administration, Time 0.25 h

In order of falling concentration at 0.25 h:
1. C=C(CC(=O)O[C@H](C)CCCCCC)C(=O)OCCC(=O)O [Example 88, (R)-3-((2-methylene-4-(octan-2-yloxy)-4-oxobutanoyl)oxy)propanoic acid]  43600 ng/mL
2. C=C(CC(=O)O[C@@H](C)CCCCCC)C(=O)OCC(=O)O [Example 89, (S)-2-((2-methylene-4-(octan-2-yloxy)-4-oxobutanoyl)oxy)acetic acid]  39100 ng/mL

Same assay, conditions: male, C57BL/6, mouse, plasma, po, 100 mg/kg, plasma, male C57BL/6 mice, oral gavage 100 mg/kg, 0.5 h; read-out: Parent compound concentrations following oral administration, Time 0.5 h

In order of rising concentration at 0.5 h:
1. C=C(CC(=O)O[C@@H](C)CCCCCC)C(=O)OCC(=O)O [Example 89, (S)-2-((2-methylene-4-(octan-2-yloxy)-4-oxobutanoyl)oxy)acetic acid]  28500 ng/mL
2. C=C(CC(=O)O[C@H](C)CCCCCC)C(=O)OCCC(=O)O [Example 88, (R)-3-((2-methylene-4-(octan-2-yloxy)-4-oxobutanoyl)oxy)propanoic acid]  33800 ng/mL

Same assay, conditions: male, C57BL/6, mouse, plasma, po, 100 mg/kg, plasma, male C57BL/6 mice, oral gavage 100 mg/kg, 1 h; read-out: Parent compound concentrations following oral administration, Time 1 h

In order of rising concentration at 1 h:
1. C=C(CC(=O)O[C@H](C)CCCCCC)C(=O)OCCC(=O)O [Example 88, (R)-3-((2-methylene-4-(octan-2-yloxy)-4-oxobutanoyl)oxy)propanoic acid]  12700 ng/mL
2. C=C(CC(=O)O[C@@H](C)CCCCCC)C(=O)OCC(=O)O [Example 89, (S)-2-((2-methylene-4-(octan-2-yloxy)-4-oxobutanoyl)oxy)acetic acid]  14000 ng/mL

Same assay, conditions: male, C57BL/6, mouse, plasma, po, 100 mg/kg, plasma, male C57BL/6 mice, oral gavage 100 mg/kg, 2 h; read-out: Parent compound concentrations following oral administration, Time 2 h

In order of rising concentration at 2 h:
1. C=C(CC(=O)O[C@@H](C)CCCCCC)C(=O)OCC(=O)O [Example 89, (S)-2-((2-methylene-4-(octan-2-yloxy)-4-oxobutanoyl)oxy)acetic acid]  4740 ng/mL
2. C=C(CC(=O)O[C@H](C)CCCCCC)C(=O)OCCC(=O)O [Example 88, (R)-3-((2-methylene-4-(octan-2-yloxy)-4-oxobutanoyl)oxy)propanoic acid]  10500 ng/mL

Same assay, conditions: male, C57BL/6, mouse, plasma, po, 100 mg/kg, plasma, male C57BL/6 mice, oral gavage 100 mg/kg, 4 h; read-out: Parent compound concentrations following oral administration, Time 4 h

In order of falling concentration at 4 h:
1. C=C(CC(=O)O[C@H](C)CCCCCC)C(=O)OCCC(=O)O [Example 88, (R)-3-((2-methylene-4-(octan-2-yloxy)-4-oxobutanoyl)oxy)propanoic acid]  4100 ng/mL
2. C=C(CC(=O)O[C@@H](C)CCCCCC)C(=O)OCC(=O)O [Example 89, (S)-2-((2-methylene-4-(octan-2-yloxy)-4-oxobutanoyl)oxy)acetic acid]  918 ng/mL

Same assay, conditions: male, C57BL/6, mouse, plasma, po, 100 mg/kg, plasma, male C57BL/6 mice, oral gavage 100 mg/kg, 6 h; read-out: Parent compound concentrations following oral administration, Time 6 h

In order of falling concentration at 6 h:
1. C=C(CC(=O)O[C@H](C)CCCCCC)C(=O)OCCC(=O)O [Example 88, (R)-3-((2-methylene-4-(octan-2-yloxy)-4-oxobutanoyl)oxy)propanoic acid]  1950 ng/mL
2. C=C(CC(=O)O[C@@H](C)CCCCCC)C(=O)OCC(=O)O [Example 89, (S)-2-((2-methylene-4-(octan-2-yloxy)-4-oxobutanoyl)oxy)acetic acid]  582 ng/mL

Same assay, conditions: male, C57BL/6, mouse, plasma, po, 100 mg/kg, plasma, male C57BL/6 mice, oral gavage 100 mg/kg, 8 h; read-out: Parent compound concentrations following oral administration, Time 8 h

In order of falling concentration at 8 h:
1. C=C(CC(=O)O[C@H](C)CCCCCC)C(=O)OCCC(=O)O [Example 88, (R)-3-((2-methylene-4-(octan-2-yloxy)-4-oxobutanoyl)oxy)propanoic acid]  72 ng/mL
2. C=C(CC(=O)O[C@@H](C)CCCCCC)C(=O)OCC(=O)O [Example 89, (S)-2-((2-methylene-4-(octan-2-yloxy)-4-oxobutanoyl)oxy)acetic acid]  16 ng/mL

Same assay, conditions: male, C57BL/6, mouse, plasma, po, 100 mg/kg, plasma, male C57BL/6 mice, oral gavage 100 mg/kg, 24 h; read-out: Parent compound concentrations following oral administration, Time 24 h

In order of falling concentration at 24 h:
1. C=C(CC(=O)O[C@@H](C)CCCCCC)C(=O)OCC(=O)O [Example 89, (S)-2-((2-methylene-4-(octan-2-yloxy)-4-oxobutanoyl)oxy)acetic acid]  6.8 ng/mL
2. C=C(CC(=O)O[C@H](C)CCCCCC)C(=O)OCCC(=O)O [Example 88, (R)-3-((2-methylene-4-(octan-2-yloxy)-4-oxobutanoyl)oxy)propanoic acid]  5.5 ng/mL
